Here are results for 3 molecules from patent US20230025600A1, “TREATMENT OF CANCERS WITH ANTIBODY DRUG CONJUGATES (ADC) THAT BIND TO 191P4D12 PROTEINS” (AGENSYS, INC., priority 2019, published 2023).

Square brackets hold non-standard residues; d marks the D form. Peptide text beside a SMILES is read from it. * marks the point of attachment. Dolaproine = CO[C@@H]([C@@H]1CCCN1)[C@@H](C)C(=O)O; Dil = CC[C@H](C)[C@H](NC)[C@@H](CC(=O)O)OC; X1 = C[C@@H](N*)[C@@H](O)c1ccccc1; NMeV = CN[C@H](C(=O)O)C(C)C

Data set [1] is described as follows: Population pharmacokinetic analysis in patients. It is filed as in vivo, human. The source says: Population pharmacokinetic analysis included data from 369 patients based on three Phase 1 studies and one Phase 2 study. Enfortumab vedotin-ejfv pharmacokinetics were characterized after single and multiple doses in patients with locally advanced or metastatic urothelial carcinoma and other solid tumors.
Steady-state concentrations of ADC and MMAE were reached after 1 treatment cycle.

Data set [2] deals with T1, CYP3A4 (Homo sapiens, UniProt P08684).
T1 construct: from tissue; host or cells: human subjects in vivo (endogenous enzyme)
Briefly: Metabolism in vitro. It is filed as in vitro ADME. The source says:
Enfortumab vedotin-ejfv catabolism has not been studied in humans; however, it is expected to undergo catabolism to small peptides, amino acids, unconjugated MMAE, and unconjugated MMAE-related catabolites.

The target of data set [3] is P-glycoprotein (P-gp) (Homo sapiens, UniProt P08183). Briefly: Transporter systems in vitro. Type of data set: in vitro ADME.
The test system of data set [4] is rat bone marrow. The experiment in a line: Rat bone marrow micronucleus study. Type of data set: in vivo. The following applies: aneugenic mechanism. The source says: (§1) MMAE was genotoxic in the rat bone marrow micronucleus study through an aneugenic mechanism. This effect is consistent with the pharmacological effect of MMAE as a microtubule-disrupting agent. MMAE was not mutagenic in the bacterial reverse mutation assay (Ames test) or the L5178Y mouse lymphoma forward mutation assay.

Data set [5] deals with bacterial reverse mutation. The experiment in a line: Bacterial reverse mutation assay (Ames test). It is filed as cell-based.
Source text: as §1
In general terms: The Ames test uses bacterial strains that need an amino acid and regain growth without it when mutated back.

Data set [6] concerns L5178Y mouse lymphoma. Briefly: L5178Y mouse lymphoma forward mutation assay. Type of data set: cell-based.
Source text: as §1

Data set [7] has as its system acute myeloid leukemia (AML) at relapse. The following applies: administered alone; cited from earlier work.
Data set [8] has as its system human lung cancer xenograft AG-L4. Briefly: Efficacy in subcutaneous established human lung cancer xenograft AG-L4 in SCID mice. Type of data set: in vivo. The following applies: 10 mg/kg every seven days for two doses, intravenous bolus; tumors about 200 mm^3 at start; compared to control ADC. Here is the method:
In another experiment, patient-derived lung cancer xenograft AG-L4 was maintained by serial passages in SCID mice. Stock tumors were harvested sterilely and minced into 1 mm^3 pieces. Six (6) pieces were implanted into the flank of individual SCID mice. Tumors were allowed to grow untreated until they reached an approximate volume of 200 mm^3. The Ha22-2(2,4)6.1vcMMAE and the control ADC were dosed at 10 mg/kg every seven (7) days for two doses by intravenous bolus injection. The amount of ADC administered was based on the individual body weight of each animal obtained immediately prior to dosing. Tumor growth was monitored using caliper measurements every 3 to 4 days. Tumor volume was calculated as Width^2×Length/2, where width is the smallest dimension and length is the largest dimension.

For data set [9], the system named is human breast cancer xenograft BT-483. Briefly: Efficacy in subcutaneous established human breast cancer xenograft BT-483 in SCID mice. Type of data set: in vivo. The note with it: 5 mg/kg every four days for four doses, intravenous bolus; tumors about 100 mm^3 at start; compared to control ADC. Here is the method: In this experiment, human breast cancer BT-483 cells were used to generate stock xenografts, which were maintained by serial passages in SCID mice. Stock tumors were harvested sterilely and minced into 1 mm^3 pieces. Six (6) pieces were implanted into the flank of individual SCID mice. Tumors were allowed to grow untreated until they reached an approximate volume of 100 mm^3. The Ha22-2(2,4)6.1vcMMAE and the control ADC were dosed at 5 mg/kg every four (4) days for four (4) doses by intravenous bolus injection. The amount of ADC administered was based on the individual body weight of each animal obtained immediately prior to dosing. Tumor growth was monitored using caliper measurements every 3 to 4 days. Tumor volume was calculated as Width^2×Length/2, where width is the smallest dimension and length is the largest dimension.
On the technique in general: In xenograft studies the graft and the host belong to different species.

Where [10] appears, read: unconjugated MMAE, after first treatment cycle of 1.25 mg/kg, Days 1, 8 and 15.

Chain of P-glycoprotein (P-gp) (P08183 whole entry): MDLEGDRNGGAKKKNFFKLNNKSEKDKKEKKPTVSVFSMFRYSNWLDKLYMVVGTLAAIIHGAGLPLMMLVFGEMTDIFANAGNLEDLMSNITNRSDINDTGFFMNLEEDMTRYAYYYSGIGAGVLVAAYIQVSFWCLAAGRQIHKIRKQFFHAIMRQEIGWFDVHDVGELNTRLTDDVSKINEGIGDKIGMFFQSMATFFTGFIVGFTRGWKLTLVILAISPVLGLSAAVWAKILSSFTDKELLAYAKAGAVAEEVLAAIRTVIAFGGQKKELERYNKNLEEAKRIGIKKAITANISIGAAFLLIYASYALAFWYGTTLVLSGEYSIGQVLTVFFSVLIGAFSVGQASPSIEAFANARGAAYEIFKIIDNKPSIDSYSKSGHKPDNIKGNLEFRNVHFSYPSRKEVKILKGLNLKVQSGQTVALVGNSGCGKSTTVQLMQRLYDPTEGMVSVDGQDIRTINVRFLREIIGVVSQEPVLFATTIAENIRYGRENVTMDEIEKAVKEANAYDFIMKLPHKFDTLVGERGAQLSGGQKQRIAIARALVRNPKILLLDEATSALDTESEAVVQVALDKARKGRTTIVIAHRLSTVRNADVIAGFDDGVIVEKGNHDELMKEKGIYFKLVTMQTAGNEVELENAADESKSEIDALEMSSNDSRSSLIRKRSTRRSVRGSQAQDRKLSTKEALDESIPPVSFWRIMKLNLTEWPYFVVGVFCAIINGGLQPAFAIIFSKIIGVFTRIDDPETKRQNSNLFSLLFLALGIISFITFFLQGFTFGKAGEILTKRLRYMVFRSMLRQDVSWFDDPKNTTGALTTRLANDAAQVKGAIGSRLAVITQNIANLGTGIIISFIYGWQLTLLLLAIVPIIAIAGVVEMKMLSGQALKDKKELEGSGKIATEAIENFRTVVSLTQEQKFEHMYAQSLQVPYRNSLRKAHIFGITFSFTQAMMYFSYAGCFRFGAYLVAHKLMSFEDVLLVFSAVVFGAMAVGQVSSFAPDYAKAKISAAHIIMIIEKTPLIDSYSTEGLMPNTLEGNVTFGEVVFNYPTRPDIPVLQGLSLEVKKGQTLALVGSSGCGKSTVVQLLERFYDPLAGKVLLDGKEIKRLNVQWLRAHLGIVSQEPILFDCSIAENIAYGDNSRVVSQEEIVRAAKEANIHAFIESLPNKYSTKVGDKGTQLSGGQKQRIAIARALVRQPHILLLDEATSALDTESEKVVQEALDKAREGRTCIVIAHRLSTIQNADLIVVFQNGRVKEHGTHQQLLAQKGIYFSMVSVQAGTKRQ
T1 sequence (P08684 whole entry): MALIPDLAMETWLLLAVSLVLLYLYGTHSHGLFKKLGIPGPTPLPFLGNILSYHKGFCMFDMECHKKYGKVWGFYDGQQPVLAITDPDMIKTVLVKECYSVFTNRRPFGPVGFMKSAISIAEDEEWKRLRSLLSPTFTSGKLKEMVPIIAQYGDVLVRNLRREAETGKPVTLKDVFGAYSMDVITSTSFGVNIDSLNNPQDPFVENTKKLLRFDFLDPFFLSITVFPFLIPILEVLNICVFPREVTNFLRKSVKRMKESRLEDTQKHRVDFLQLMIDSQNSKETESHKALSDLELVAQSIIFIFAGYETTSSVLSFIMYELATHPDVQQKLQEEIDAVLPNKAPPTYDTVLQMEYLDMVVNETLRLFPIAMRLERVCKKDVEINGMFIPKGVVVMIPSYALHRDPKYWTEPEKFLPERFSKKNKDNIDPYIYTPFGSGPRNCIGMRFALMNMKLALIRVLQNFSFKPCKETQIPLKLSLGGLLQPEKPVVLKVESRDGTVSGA

Regarding `CC[C@H](C)[C@@H]([C@@H](CC(=O)N1CCC[C@H]1[C@H](OC)[C@@H](C)C(=O)N[C@H](C)[C@@H](O)c1ccccc1)OC)N(C)C(=O)[C@@H](NC(=O)[C@@H](NC)C(C)C)C(C)C` [MMAE, monomethyl auristatin E] (H-[NMeV]V[Dil][Dolaproine]-X1), in [1] (1.25 mg/kg, compared to normal renal function), the “exposure (AUC) in mild, moderate or severe renal impairment” value is “No significant differences”. Also, in [1] (n=31, compared to normal hepatic function, population pharmacokinetics analysis), the “AUC increase in mild hepatic impairment” value turned out to be 48%. Further, in data set [1] (patients), the “accumulation following repeat administration” value was “Minimal accumulation”, the “elimination of MMAE” value is “limited by its rate of release from enfortumab vedotin-ejfv”, the “mean clearance (CL)” value is 2.7 L/h and the “steady-state concentrations reached after” value is 1 treatment cycle. Also, in data set [1] (patients), the “time of peak MMAE concentrations after enfortumab vedotin-ejfv dosing” value is reported as “approximately 2 days”. Also, the elimination half-life in [1] (patients, multi-exponential declines) turned out to be 57.6 h. Moreover, in data set [1] (setting [10]), the “AUC0-28 d, Mean (±SD)” value is given as 69 (42) ng · d/mL; the “Cmax, Mean (±SD)” value is recorded as 4.8 (2.7) ng/mL; the “Ctrough, 0-28 d (pre-dose concentration on day 28), Mean (±SD)” value is 0.57 (0.58) ng/mL. Further, in data set [2], the metabolism in vitro result is on record as “primarily metabolized by CYP3A4”. Moreover, in [3], the P-gp inhibition entry is “not an inhibitor” and the P-gp substrate result is “substrate”. Moreover, in data set [4], the “genotoxicity in rat bone marrow micronucleus study” value was “genotoxic”. For the same molecule, the “mutagenicity in Ames test” value in data set [5] was “not mutagenic”. For the same molecule, the “mutagenicity in L5178Y mouse lymphoma forward mutation assay” value in data set [6] is “not mutagenic”.
Turning to “CT-011: anti-PD-1 antibody, a humanized antibody”, the “response in acute myeloid leukemia (AML) at relapse” value in data set [7] is reported as “failed to show response”.
As for “Ha22-2(2,4)6.1-vcMMAE: 191P4D12 ADC: antibody Ha22-2(2,4)6.1 (murine hybridoma cell line-derived) conjugated to MMAE via vc linker”, the “growth of AG-L4 lung cancer xenografts” value in data set [8] is “significantly inhibited”. The “growth of BT-483 breast tumor xenografts” value in [9] is given as “significantly inhibited”.
